Activity calls are given as the source filed them. The rule behind the calls is not given here.
Columns and labels:
[1] = biological target: Programmed cell death protein 1/Programmed cell death 1 ligand 1 (Homo sapiens, UniProt Q9NZQ7); experiment: Inhibition of PD-1/PD-L1 interaction (unknown origin) preincubated with PD-L1 for 15 mins followed by PD-1 addition measured after 90 mins by TR-FRET assay; format: protein-complex assay
CT26 [2] = experiment: Antitumour activity against mouse CT26 cells implanted in BALB/c mouse assessed as inhibition of tumour growth at 40 mg/kg, po measured for 14 days relative to control; format: functional; conditions: 336 h, time 14 day, read-out: TGI
CT26 [3] = experiment: Antitumor activity against mouse CT26 cells implanted in BALB/c mouse assessed as tumor growth inhibition at 40 to 80 mg/kg/day, po measured once in 2 weeks relative to control; format: functional; conditions: dose 40-80 mg/kg/day
[4] = Oral bioavailability in Sprague-Dawley rat at 25 mg/kg measured upto 24 hrs by LC-MS/MS analysis; format: ADME, organism-based; conditions: in vivo
MDA-MB-231 [5] = experiment: Antitumor immunity against human MDA-MB-231 cells co-cultured with CD3/CD28/CD2 T cell activator stimulated human PMBC assessed as cell death measuring lactate dehydrogenase release measured for 12 hrs by PBMC killing assay; format: functional, cell-based; conditions: MDA-MB-231, 12 h
[6] = Half life in Sprague-Dawley rat at 3 mg/kg, iv measured upto 24 hrs by LC-MS/MS analysis; format: ADME, organism-based; conditions: in vivo
CT26 [7] = experiment: Antitumour activity against mouse CT26 cells implanted in BALB/c mouse assessed as induction of tumor shrinkage at 40 to 80 mg/kg, po administered twice a day by Hematoxylin and Eosin staining based analysis; format: functional, organism-based; conditions: dose 40-80 mg/kg
[8] = AUC (0 to t) in Sprague-Dawley rat at 3 mg/kg, iv measured upto 24 hrs by LC-MS/MS analysis; format: ADME, organism-based; set-up: route intravenous, dose 3 mg/kg, time <=24; conditions: in vivo
[9] = AUC (0 to t) in Sprague-Dawley rat at 25 mg/kg, po measured upto 24 hrs by LC-MS/MS analysis; format: ADME, organism-based; set-up: route oral, dose 25 mg/kg, time <=24; conditions: in vivo
[10] = Cytotoxicity against human PBMC cells assessed as cell viability at […] by LDH assay; format: cell-based; conditions: dose 1.5 µM
MDA-MB-231 [11] = experiment: Antitumor immunity against human MDA-MB-231 cells co-cultured with CD3/CD28/CD2 T cell activator stimulated human PMBC assessed as cell death measuring lactate dehydrogenase release at 375 nM measured for 12 hrs by PBMC killing assay relative to control; format: functional
CT26 [12] = experiment: Antitumor activity against mouse CT26 cells implanted in BALB/c mouse assessed as decrease in final tumor weight at 40 to 80 mg/kg/day, po measured once in 2 weeks relative to control; format: functional; set-up: scale not given: the % may be the effect or the level left; conditions: dose 40-80 mg/kg/day
[13] = Toxicity in BALB/c mouse implanted with mouse CT26 cells assessed as body weight change at 40 to 80 mg/kg/day, po measured once in 2 weeks; format: organism-based; conditions: in vivo, 336 h, dose 40-80 mg/kg/day
[14] = Cmax in Sprague-Dawley rat at 25 mg/kg, po measured upto 24 hrs by LC-MS/MS analysis; format: ADME, organism-based; set-up: route oral, dose 25 mg/kg, time <=24; conditions: in vivo
MDA-MB-231 [15] = experiment: Antitumor activity against human MDA-MB 231 cells assessed as cell viability at […] by LDH assay; format: functional, cell-based; conditions: dose 1.5 µM
[16] = Half life in Sprague-Dawley rat at 25 mg/kg, po measured upto 24 hrs by LC-MS/MS analysis; format: ADME, organism-based; conditions: in vivo
[17] = Tmax in Sprague-Dawley rat at 25 mg/kg, po measured upto 24 hrs by LC-MS/MS analysis; format: ADME, organism-based; conditions: in vivo
CT26 [18] = experiment: Antitumour activity against mouse CT26 cells implanted in BALB/c mouse assessed as decrease in nucleus to cytoplasm ratio at 40 to 80 mg/kg, po administered twice a day by Hematoxylin and Eosin staining based analysis; format: functional, organism-based; conditions: dose 40-80 mg/kg
[19] = Clearance in Sprague-Dawley rat at 25 mg/kg, po measured upto 24 hrs by LC-MS/MS analysis; format: ADME, organism-based; conditions: in vivo
[20] = Cmax in Sprague-Dawley rat at 3 mg/kg, iv measured upto 24 hrs by LC-MS/MS analysis; format: ADME, organism-based; set-up: route intravenous, dose 3 mg/kg, time <=24; conditions: in vivo
[21] = Toxicity in BALB/c mouse implanted with mouse CT26 cells assessed as mortality at 40 to 80 mg/kg/day, po measured once in 2 weeks; format: organism-based; conditions: in vivo, 336 h, dose 40-80 mg/kg/day
[22] = Tmax in Sprague-Dawley rat at 3 mg/kg, iv measured upto 24 hrs by LC-MS/MS analysis; format: ADME, organism-based; conditions: in vivo
CT26 [23] = experiment: Antitumour activity against mouse CT26 cells implanted in po dosed BALB/c mouse assessed as increase in CD8+ cells in dissociated tumor tissue administered once daily for 2 weeks by flow cytometry analysis; format: functional, organism-based
[24] = Apparent volume of distribution in Sprague-Dawley rat at 3 mg/kg, iv measured upto 24 hrs by LC-MS/MS analysis; format: ADME, organism-based; conditions: in vivo, read-out: Vz
[25] = Apparent volume of distribution in Sprague-Dawley rat at 25 mg/kg, po measured upto 24 hrs by LC-MS/MS analysis; format: ADME, organism-based; conditions: in vivo
[26] = Clearance in Sprague-Dawley rat at 3 mg/kg, iv measured upto 24 hrs by LC-MS/MS analysis; format: ADME, organism-based; conditions: in vivo
CT26 [27] = experiment: Antitumour activity against mouse CT26 cells implanted in BALB/c mouse assessed as increased infiltration of CD8+ cell in tumor tissue at 40 to 80 mg/kg, po administered twice a day by immunohistochemical analysis; format: functional, organism-based; conditions: dose 40-80 mg/kg
MDA-MB-231 [28] = experiment: Antitumor immunity against human MDA-MB-231 cells co-cultured with CD3/CD28/CD2 T cell activator stimulated human PMBC assessed as cell death measuring lactate dehydrogenase release at 48.9 to 1500 nM measured for 12 hrs by PBMC killing assay; format: functional, cell-based; conditions: dose lower 48.9 nM, dose upper […]
CT26 [29] = experiment: Antitumour activity against mouse CT26 cells implanted in BALB/c mouse assessed as inhibition of tumour cell growth at 40 to 80 mg/kg, po administered twice a day by Hematoxylin and Eosin staining based analysis; format: functional, organism-based; conditions: dose 40-80 mg/kg
MDA-MB-231 [30] = experiment: Antitumor immunity against human MDA-MB-231 cells co-cultured with CD3/CD28/CD2 T cell activator stimulated human PMBC assessed as cell death measuring lactate dehydrogenase release at 500 nM measured for 12 hrs by PBMC killing assay relative to control; format: functional

Sequence of Programmed cell death protein 1/Programmed cell death 1 ligand 1 (Q15116 whole entry): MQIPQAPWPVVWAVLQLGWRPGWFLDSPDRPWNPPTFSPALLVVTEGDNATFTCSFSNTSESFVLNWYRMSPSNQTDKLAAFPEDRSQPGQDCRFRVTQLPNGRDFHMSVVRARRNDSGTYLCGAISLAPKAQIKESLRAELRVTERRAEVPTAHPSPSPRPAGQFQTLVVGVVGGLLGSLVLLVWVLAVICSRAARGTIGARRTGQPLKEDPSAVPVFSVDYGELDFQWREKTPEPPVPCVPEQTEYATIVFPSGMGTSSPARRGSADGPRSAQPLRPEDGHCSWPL
Sequence of Programmed cell death protein 1/Programmed cell death 1 ligand 1 (Q9NZQ7 whole entry): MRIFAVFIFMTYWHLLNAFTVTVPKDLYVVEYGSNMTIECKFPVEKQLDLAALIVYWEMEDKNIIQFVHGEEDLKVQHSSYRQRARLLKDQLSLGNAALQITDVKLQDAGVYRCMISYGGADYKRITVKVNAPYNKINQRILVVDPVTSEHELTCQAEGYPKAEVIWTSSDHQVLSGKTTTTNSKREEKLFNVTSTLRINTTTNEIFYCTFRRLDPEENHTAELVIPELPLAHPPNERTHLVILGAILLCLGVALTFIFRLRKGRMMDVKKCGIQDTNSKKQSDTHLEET

COc1nc(-c2cccc(-c3ccccc3)c2C)ccc1CN[C@@H](CO)C(=O)O
IC50 [1]: 17 nM

COc1nc(-c2cccc(-c3ccccc3)c2C)ccc1CNCCCO
IC50 [1]: 7.4 nM

COc1nc(-c2cccc(-c3ccccc3)c2C)ccc1CNCCO
inhibition in vivo at 40 mg/kg (CT26 [2]): 57% | TGI (CT26 [3]): 67% | bioavailability [4]: 22% | EC50 (MDA-MB-231 [5]): 100 nM | half-life [6]: 4.2 h | Activity (CT26 [7]): Active | AUC(0-t) at 24 h [8]: 430 ng·h/mL | AUC(0-t) at 24 h [9]: 787 ng·h/mL | Activity [10]: Non-Toxic | Activity (MDA-MB-231 [11]): 53% | Activity (CT26 [12]): 60% | Activity [13]: Non-Toxic | Cmax [14]: 192 ng/mL | Activity (MDA-MB-231 [15]): inactive | half-life [16]: 6.4 h | Tmax [17]: 0.69 h | Activity (CT26 [18]): Active | CL/F [19]: 480 mL/min/kg | Cmax [20]: 1230 ng/mL | Activity [21]: Non-Toxic | Tmax [22]: 1.8 min | Activity (CT26 [23]): Dose-Dependent Effect | Vd [24]: 78.6 L/kg | Vz [25]: 249.3 L/kg | clearance [26]: 192 mL/min/kg | IC50 [1]: […] | Activity (CT26 [27]): Active | Activity (MDA-MB-231 [28]): Active | Activity (CT26 [29]): Active

COc1nc(OCc2cccc(-c3ccccc3)c2C)ccc1CNCCNC(C)=O
inhibition in vivo at 40 mg/kg (CT26 [2]): 32% | Activity (MDA-MB-231 [30]): 44%

COc1nc(-c2cccc(-c3ccc4c(c3)OCO4)c2C)ccc1CNCCO
IC50 [1]: 13.2 nM

COc1nc(-c2cccc(-c3ccccc3)c2C)ccc1CN1CC[C@@H](O)C1
IC50 [1]: 8.5 nM

Cc1c(-c2ccccc2)cccc1-c1ccc(CNCCO)cn1
IC50 [1]: 34.6 nM

COc1nc(-c2cccc(-c3ccc4c(c3)OCCO4)c2C)ccc1CNCCO
IC50 [1]: 7.9 nM

COc1nc(-c2cccc(-c3ccccc3)c2C)ccc1CNCCNC(C)=O
IC50 [1]: 14.4 nM

COc1cccc(-c2cccc(-c3ccc(CNCCO)c(OC)n3)c2C)c1
IC50 [1]: 12.6 nM

COC(=O)c1ccc(-c2cccc(-c3ccccc3)c2C)nc1OC
IC50 [1]: 326 nM

COc1nc(-c2cccc(-c3ccccc3)c2C)ccc1CNC[C@@H]1CCC(=O)N1
IC50 [1]: 14.2 nM

CC(=O)NCCNCc1ccc(-c2cccc(-c3ccccc3)c2C)nc1
IC50 [1]: 52.8 nM

COc1nc(-c2cccc(-c3ccccc3)c2C)ccc1CN[C@H](C)CO
IC50 [1]: 5 nM

COc1nc(-c2cccc(-c3ccccc3)c2C)ccc1CNCCN
IC50 [1]: 20.8 nM

COc1nc(-c2cccc(-c3ccc4c(c3)OCCO4)c2C)ccc1CNCCNC(C)=O
IC50 [1]: 14.1 nM

COc1nc(-c2cccc(-c3ccc4c(c3)OCCO4)c2C)ccc1CNCCCO
IC50 [1]: 7.7 nM

COc1nc(-c2cccc(-c3ccccc3)c2C)ccc1CN(C)CCO
IC50 [1]: 8.4 nM

COc1nc(-c2cccc(-c3ccc4c(c3)OCCO4)c2C)ccc1CN[C@@H](CO)C(=O)O
IC50 [1]: 10.4 nM

COc1nc(-c2cccc(-c3ccc4c(c3)OCCO4)c2C)ccc1CNCCN
IC50 [1]: 16.7 nM

COc1nc(-c2cccc(-c3ccccc3)c2C)ccc1C(=O)NCCO
IC50 [1]: 327 nM

Cc1c(-c2ccccc2)cccc1-c1cc(CNCCO)ccn1
IC50 [1]: 131 nM
